Reference: patent US12234256B2, “Molecular degraders of extracellular proteins” (priority 2021, dated 2025)

Key:
[1] = test system: α-DNP antibody; assay: Ternary complex formation between hepatocytes and α-DNP antibody; format: cell-based; settings: FIG. 6B; competitive binders of ASGPR or α-DNP antibody
[2] = test system: α-DNP antibody; assay: In vivo serum levels of α-DNP antibody, ELISA; settings: FIG. 8D; single variable dose; mice
Procedure: In vivo experiments were performed under Yale University IACUC supervision following protocol entitled “pre-clinical evaluation of small molecule immunomodulators” (Protocol number 2017-11445). Experiments were performed in male nude mice purchased from Jackson Laboratory (NU/J, Stock No. 002019). Compounds were administered i.p. in a volume of 100 μL PBS. Approximately 25 μL of blood was collected at each time point by saphenous bleed. Antibody was administered as 40 μg in 100 μL i.p. Compounds were administered daily at the specified dose throughout the course of experiments. For data analysis, antibody levels were normalized to the recorded concentration of antibody observed in each mouse 24 hours after the i.p. administration.
ELISA analysis of serum samples was performed using MaxiSorp 96 well plates (Thermo, 44-2404-21). Plates were coated with 50 μL of BSA-DNP (Invitrogen, A23018) at 100 ug/mL in PBS and incubated at 4° C. overnight. Coating solution was then removed, and the plates were blocked with 2% BSA in PBS for 2 hours at room temperature, followed by washing twice with PBST (0.2% Tween). Serum samples were diluted in 2% BSA in PBS. […] The plates were then treated with TMB (Thermo 34028) followed by 2 M H2SO4 and analyzed for OD at 450 nm on a plate reader (BioTek Synergy 2). Sample concentrations were determined against a standard curve.

CC(=O)N[C@H]1[C@H](OCCOCCOCCNC(=O)CCOCC(COCCC(=O)NCCOCCOCCO[C@@H]2O[C@H](CO)[C@H](O)[C@H](O)[C@H]2NC(C)=O)(COCCC(=O)NCCOCCOCCO[C@@H]2O[C@H](CO)[C@H](O)[C@H](O)[C@H]2NC(C)=O)NC(=O)CNC(=O)COCCOCCOCCNc2ccc([N+](=O)[O-])cc2[N+](=O)[O-])O[C@H](CO)[C@H](O)[C@@H]1O [D-MoDE-A]
D-MoDE-A-mediated ternary complex formation in presence of competitive binders [1]: inhibited by competitive binders of either ASGPR or α-DNP antibody | serum levels of α-DNP antibody [2]: decrease in serum levels of α-DNP antibody
